From patent US10570179B2, “Substituted urea depsipeptide analogs as activators of the CLPP endopeptidase” (priority 2016, dated 2020)
Numbered stars: 1 amine (or outer) side, 2 acyl side, 3 side chain; on linkers, the order of the positions; unused ones are H or OH. Bridge positions count the residues as written; N and C are the ends. Square brackets hold non-standard residues; d marks the D form. Peptide text beside a SMILES is read from it. * marks the point of attachment. Piperazine(2S-CO,4-Me) = CN1CCN[C@H](C(=O)O)C1; Phe(3,5-F2) = N[C@@H](Cc1cc(F)cc(F)c1)C(=O)O; NH(1-Me-indolin-5-yl) = CN1CCc2cc(N*)ccc21; X6 = O=C([C@@H]1CS(=O)(=O)CCN1[*:1])[*:2]; Morpholine(3S-CO) = O=C(O)[C@@H]1COCCN1; Phe(3-Me) = Cc1cccc(C[C@H](N)C(=O)O)c1; Pro(4S-Me) = C[C@@H]1CN[C@H](C(=O)O)C1; NH(4-Cl-2-F-phenyl) = Fc1cc(Cl)ccc1N*; Pro(4R-Me) = C[C@H]1CN[C@H](C(=O)O)C1; X1 = O=C([C@@H]1CSCCN1[*:1])[*:2]; Hyp = O=C(O)[C@@H]1C[C@@H](O)CN1; NH(4-Me-phenyl) = Cc1ccc(N*)cc1; aThr = C[C@H](O)[C@H](N)C(=O)O; Pip = O=C(O)[C@@H]1CCCCN1; 4Abz = Nc1ccc(C(=O)O)cc1; CO = O=C([*:1])[*:2]; X2 = Fc1cc(N*)ccc1Cl

Tests used:
[1] = system: S. aureus ΔClpP; experiment: Minimal inhibitory concentration, microbroth dilution; format: cell-based, Staphylococcus aureus; settings: MIC; ClpP inactivated
Method in brief: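 MICs were determined by CLSI broth microdilution, using two-fold compound dilutions from a final 200 μM and about 10^5 cfu/mL inoculum. Plates were incubated aerobically at 37 °C overnight. The MIC was read visually as the lowest concentration preventing growth.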

[2] = Plasma stability assay; format: in vitro ADME, mouse
Description: The plasma stability property of early drug discovery compounds can influence the in vivo efficacy of the test compounds/drugs. Human and/or mouse plasma degradation is determined using multiple time points to monitor the rate of disappearance of the parent compound during incubation.
Sample preparation for plasma stability was modified from Di et al. (2005) Int. J. Pharm. 297(1-2): 110-119. A set of incubation times of 0, 3, 24, and 48 hour were used. DMSO stock solutions of test compounds were prepared at 10 mM concentration. 1.8 μL of each test compound was each added directly to 1.8 mL of human/mouse plasma to get the final concentration of 10 μM. This compound/matrix was mixed and 70 μL was transferred to 8 time points plates (each in triplicate wells). For the Time 0 plate, 210 μL of cold acetonitrile with internal standard (4 μg/mL warfarin) was added to each well and no incubation needed. For other seven time points' plate, the plate was incubated at 37° C. for required time, followed by quenching of the reaction by adding 210 μL of cold acetonitrile with internal standard (4 μg/ml warfarin) to each well. All of the plates were sealed and mixed well at 600 rpm for 10 min and were centrifuged at 4000 rpm for 20 min. The supernatants (120 μL) were transferred to analytical plates for analysis by LCMS. Conditions for Waters ACQUITY-UPLC-MS-UV system was described separately. The plasma stability was evaluated via the half-life from least-squares fit of the multiple time points based on first-order kinetics.

[3] = plasma stability half-life, mouse plasma, 37° C.

Structure (SMILES)	Minimal Inhibitory Concentrations (μM) S. aureus ΔClpP [1]	Mouse [2, 3]	Mouse (hr) [2, 3]	Mouse ([2]; mouse, 10 μM)
Cc1ccc(NC(=O)N[C@@H](Cc2cccc(C)c2)C(=O)N[C@H]2COC(=O)[C@@H]3C[C@H](C)CN3C(=O)[C@H](C)NC(=O)[C@@H]3CCCCN3C(=O)[C@@H]3CCCN3C2=O)cc1 (stereo in doubt) [Compound 43, (S)—N-((2S,6S,8AS,14AS,20S,23AS)-2,6-DIMETHYL-5,8,14,19,23-PENTAOXOOCTADECAHYDRO-1H,5H,14H,19H-PYRIDO[2,1-I]DIPYRROLO[2,1-C:2′,1′-L][1]OXA[4,7,10,13]TETRAAZACYCLOHEXADECIN-20-YL)-3-(M-TOLYL)-2-(3-(P-TOLYL)UREIDO)PROPANAMIDE]	>20 µM	21.9 h	–	–
C[C@@H]1C[C@H]2C(=O)O[C@@H](C)[C@H](NC(=O)[C@H](Cc3cc(F)cc(F)c3)NC(=O)Nc3ccc4c(c3)CCN4C)C(=O)N3CCC[C@H]3C(=O)N3CCOC[C@H]3C(=O)N[C@@H](C)C(=O)N2C1 [Compound 32] ({NH(1-Me-indolin-5-yl)-CO}-[Phe(3,5-F2)][aThr]P[Morpholine(3S-CO)]A[Pro(4R-Me)]; ester 2-C)	>20 µM	–	>>48 hr	–
C[C@@H]1C[C@H]2C(=O)OC[C@H](NC(=O)[C@H](Cc3cc(F)cc(F)c3)NC(=O)Nc3ccc(Cl)cc3F)C(=O)N3CCC[C@H]3C(=O)N3CCN(C)C[C@H]3C(=O)N[C@@H](C)C(=O)N2C1 [Compound 34] ({NH(4-Cl-2-F-phenyl)-CO}-[Phe(3,5-F2)]SP[Piperazine(2S-CO,4-Me)]A[Pro(4R-Me)]; ester 2-C)	>20 µM	–	–	21.18 h
Cc1cccc(C[C@H](NC(=O)Nc2ccc(Cl)c(F)c2)C(=O)N[C@@H]2C(=O)N3CCC[C@H]3C(=O)N3CCCC[C@H]3C(=O)N[C@@H](C)C(=O)N3C[C@H](C)C[C@H]3C(=O)O[C@H]2C)c1 [Compound 35, (S)-2-(3-(4-CHLORO-3-FLUOROPHENYL)UREIDO)-3-(M-TOLYL)-N-((2R,6S,8AS,14AS,20S,21S,23AS)-2,6,21-TRIMETHYL-5,8,14,19,23-PENTAOXOOCTADECAHYDRO-1H,5H,14H,19H-PYRIDO[2,1-I]DIPYRROLO[2,1-C:2′,1′-L][1]OXA[4,7,10,13]TETRAAZACYCLOHEXADECIN-20-YL)PROPANAMIDE] ({X2-CO}-[Phe(3-Me)][aThr]P[Pip]A[Pro(4R-Me)]; ester 2-C)	>20 µM	–	–	>50 h
CCOC(=O)c1ccc(NC(=O)N[C@@H](Cc2cccc(C)c2)C(=O)N[C@@H]2C(=O)N3C[C@H](O)C[C@H]3C(=O)N3CCCC[C@H]3C(=O)N[C@@H](C)C(=O)N3C[C@H](C)C[C@H]3C(=O)O[C@H]2C)cc1 [Compound 36, ETHYL 4-(3-((S)-1-(((2R,6S,8AS,14AS,16R,20S,21S,23AS)-16-HYDROXY-2,6,21-TRIMETHYL-5,8,14,19,23-PENTAOXOOCTADECAHYDRO-1H,5H,14H,19H-PYRIDO[2,1-I]DIPYRROLO[2,1-C:2′,1′-L][1]OXA[4,7,10,13]TETRAAZACYCLOHEXADECIN-20-YL)AMINO)-1-OXO-3-(M-TOLYL)PROPAN-2-YL)UREIDO)BENZOATE] ({OEt-4Abz-CO}-[Phe(3-Me)][aThr][Hyp][Pip]A[Pro(4R-Me)]; ester 2-C)	>20 µM	0.30 h	–	–
Cc1cccc(C[C@H](NC(=O)Nc2ccc(Cl)cc2F)C(=O)N[C@@H]2C(=O)N3CCC[C@H]3C(=O)N3CCSC[C@H]3C(=O)N[C@@H](C)C(=O)N3C[C@H](C)C[C@H]3C(=O)O[C@H]2C)c1 [Compound 38, (S)-2-(3-(4-CHLORO-2-FLUOROPHENYL)UREIDO)-3-(M-TOLYL)-N-((6AS,12S,13S,15AS,17R,21S,23AR)-13,17,21-TRIMETHYL-6,11,15,20,23-PENTAOXOOCTADECAHYDRO-6H,11H,15H-DIPYRROLO[2,1-C:2′,1′-L][1,4]THIAZINO[3,4-I][1]OXA[4,7,10,13]TETRAAZACYCLOHEXADECIN-12-YL)PROPANAMIDE] ({NH(4-Cl-2-F-phenyl)-CO}-[Phe(3-Me)][aThr]P[X1]A[Pro(4R-Me)]; ester 2-C)	>20 µM	–	–	>50 h
Cc1cccc(C[C@H](NC(=O)Nc2ccc(Cl)cc2F)C(=O)N[C@@H]2C(=O)N3CCC[C@H]3C(=O)N3CCS(=O)(=O)C[C@H]3C(=O)N[C@@H](C)C(=O)N3C[C@H](C)C[C@H]3C(=O)O[C@H]2C)c1 [Compound 40, (S)-2-(3-(4-CHLORO-2-FLUOROPHENYL)UREIDO)-3-(M-TOLYL)-N-((6AS,12S,13S,15AS,17R,21S,23AR)-13,17,21-TRIMETHYL-2,2-DIOXIDO-6,11,15,20,23-PENTAOXOOCTADECAHYDRO-6H,11H,15H-DIPYRROLO[2,1-C:2′,1′-L][1,4]THIAZINO[3,4-I][1]OXA[4,7,10,13]TETRAAZACYCLOHEXADECIN-12-YL)PROPANAMIDE] ({NH(4-Cl-2-F-phenyl)-CO}-[Phe(3-Me)][aThr]P[X6]A[Pro(4R-Me)]; ester 2-C)	>20 µM	–	–	>50 h
Cc1cccc(C[C@H](NC(=O)Nc2ccc(Cl)cc2F)C(=O)N[C@@H]2C(=O)N3C[C@H](O)C[C@H]3C(=O)N3CCSC[C@H]3C(=O)N[C@@H](C)C(=O)N3C[C@H](C)C[C@H]3C(=O)O[C@H]2C)c1 [Compound 41, (S)-2-(3-(4-CHLORO-2-FLUOROPHENYL)UREIDO)-N-((6AS,8R,12S,13S,15AS,17R,21S,23AR)-8-HYDROXY-13,17,21-TRIMETHYL-6,11,15,20,23-PENTAOXOOCTADECAHYDRO-6H,11H,15H-DIPYRROLO[2,1-C:2′,1′-L][1,4]THIAZINO[3,4-I][1]OXA[4,7,10,13]TETRAAZACYCLOHEXADECIN-12-YL)-3-(M-TOLYL)PROPANAMIDE] ({NH(4-Cl-2-F-phenyl)-CO}-[Phe(3-Me)][aThr][Hyp][X1]A[Pro(4R-Me)]; ester 2-C)	>20 µM	–	–	>50 h
Cc1ccc(NC(=O)N[C@@H](Cc2cccc(C)c2)C(=O)N[C@@H]2C(=O)N3C[C@H](O)C[C@H]3C(=O)N3CCSC[C@H]3C(=O)N[C@@H](C)C(=O)N3C[C@H](C)C[C@H]3C(=O)O[C@H]2C)cc1 [Compound 42, (S)—N-((6AS,8R,12S,13S,15AS,17R,21S,23AR)-8-HYDROXY-13,17,21-TRIMETHYL-6,11,15,20,23-PENTAOXOOCTADECAHYDRO-6H,11H,15H-DIPYRROLO[2,1-C:2′,1′-L][1,4]THIAZINO[3,4-I][1]OXA[4,7,10,13]TETRAAZACYCLOHEXADECIN-12-YL)-3-(M-TOLYL)-2-(3-(P-TOLYL)UREIDO)PROPANAMIDE] ({NH(4-Me-phenyl)-CO}-[Phe(3-Me)][aThr][Hyp][X1]A[Pro(4R-Me)]; ester 2-C)	>20 µM	>50 h	–	–
Cc1ccc(NC(=O)N[C@@H](Cc2cccc(C)c2)C(=O)N[C@@H]2C(=O)N3CCC[C@H]3C(=O)N3CCCC[C@H]3C(=O)N[C@@H](C)C(=O)N3C[C@@H](C)C[C@H]3C(=O)O[C@H]2C)cc1 [Compound 45, (S)-3-(M-TOLYL)-2-(3-(P-TOLYL)UREIDO)-N-((2S,6S,8AS,14AS,20S,21S,23AS)-2,6,21-TRIMETHYL-5,8,14,19,23-PENTAOXOOCTADECAHYDRO-1H,5H,14H,19H-PYRIDO[2,1-I]DIPYRROLO[2,1-C:2′,1′-L][1]OXA[4,7,10,13]TETRAAZACYCLOHEXADECIN-20-YL)PROPANAMIDE] ({NH(4-Me-phenyl)-CO}-[Phe(3-Me)][aThr]P[Pip]A[Pro(4S-Me)]; ester 2-C)	>20 µM	>50 h	–	–
